Laboratory results reported in ChEMBL document CHEMBL1201862, “PubChem BioAssay data set” (2004).
One block for each compound: values may come before it. The source made the active and inactive calls.

How the values were obtained:
[1] = viability of uninfected HEp-2 cells – cell-based, HTS, cytotoxicity control for RSV inhibitor project, dose response (AID 2410); format: functional; settings: human respiratory syncytial virus
[2] = target: Cytochrome P450 2D6 (Homo sapiens, UniProt P10635);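 also: CYP2D6 member of a cytochrome P450 panel assay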
[3] = target: Cytochrome P450 2C9 (Homo sapiens, UniProt P11712)
[4] = target: Cytochrome P450 3A4 (Homo sapiens, UniProt P08684);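 also: CYP3A4 tested as one member of a cytochrome P450 panel screen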
[5] = Trypanosoma cruzi growth suppression in host cells – NIH3T3 host cells, beta-gal luminescence, confirmation (AID 2044); format: functional, cell-based;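 also: intracellular parasites grown in NIH/3T3 mouse fibroblasts as host cells; luminescent beta-galactosidase reporter signal from transgenic T. cruzi replicating inside host cells; inhibitors lower the luminescence signal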
[6] = NIH3T3 cell viability loss – ATP luminescence, mouse fibroblasts, counter-screen, dose response (AID 2010); format: functional, cell-based;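 also: cells exposed to compound for about 90 hours before reading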
[7] = target: T1, Cytochrome P450 1A2 (Homo sapiens, UniProt P05177);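 also: PubChem cytochrome P450 panel assay, CYP1A2 panel member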
T1 sequence (P05177 whole entry): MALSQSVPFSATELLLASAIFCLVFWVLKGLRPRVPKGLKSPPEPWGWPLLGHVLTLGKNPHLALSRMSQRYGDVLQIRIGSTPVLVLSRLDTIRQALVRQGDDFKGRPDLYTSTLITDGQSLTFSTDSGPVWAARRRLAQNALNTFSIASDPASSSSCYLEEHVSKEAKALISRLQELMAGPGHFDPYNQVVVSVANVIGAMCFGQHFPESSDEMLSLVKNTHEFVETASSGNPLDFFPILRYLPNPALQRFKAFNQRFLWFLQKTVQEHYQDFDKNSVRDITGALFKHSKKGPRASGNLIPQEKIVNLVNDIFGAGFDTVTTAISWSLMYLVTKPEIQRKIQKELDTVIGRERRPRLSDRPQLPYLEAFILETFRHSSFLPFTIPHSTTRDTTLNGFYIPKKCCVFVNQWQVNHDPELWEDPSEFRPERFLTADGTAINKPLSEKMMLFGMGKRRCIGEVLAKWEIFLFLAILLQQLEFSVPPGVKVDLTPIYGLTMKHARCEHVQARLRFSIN

Chain of Cytochrome P450 2D6 (P10635 whole entry): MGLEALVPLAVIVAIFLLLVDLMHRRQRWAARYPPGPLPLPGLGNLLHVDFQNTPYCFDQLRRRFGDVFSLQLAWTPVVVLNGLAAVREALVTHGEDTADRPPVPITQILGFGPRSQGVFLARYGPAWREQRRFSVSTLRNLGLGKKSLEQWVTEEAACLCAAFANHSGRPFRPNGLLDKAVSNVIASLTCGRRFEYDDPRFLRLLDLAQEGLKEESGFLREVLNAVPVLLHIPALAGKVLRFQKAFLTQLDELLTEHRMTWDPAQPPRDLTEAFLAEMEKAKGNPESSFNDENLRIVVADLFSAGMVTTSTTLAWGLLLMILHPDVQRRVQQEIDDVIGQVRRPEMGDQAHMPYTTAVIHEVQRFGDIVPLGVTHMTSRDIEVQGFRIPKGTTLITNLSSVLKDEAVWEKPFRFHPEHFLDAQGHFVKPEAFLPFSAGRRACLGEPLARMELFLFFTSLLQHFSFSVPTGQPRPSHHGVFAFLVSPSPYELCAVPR
Chain of Cytochrome P450 3A4 (P08684 whole entry): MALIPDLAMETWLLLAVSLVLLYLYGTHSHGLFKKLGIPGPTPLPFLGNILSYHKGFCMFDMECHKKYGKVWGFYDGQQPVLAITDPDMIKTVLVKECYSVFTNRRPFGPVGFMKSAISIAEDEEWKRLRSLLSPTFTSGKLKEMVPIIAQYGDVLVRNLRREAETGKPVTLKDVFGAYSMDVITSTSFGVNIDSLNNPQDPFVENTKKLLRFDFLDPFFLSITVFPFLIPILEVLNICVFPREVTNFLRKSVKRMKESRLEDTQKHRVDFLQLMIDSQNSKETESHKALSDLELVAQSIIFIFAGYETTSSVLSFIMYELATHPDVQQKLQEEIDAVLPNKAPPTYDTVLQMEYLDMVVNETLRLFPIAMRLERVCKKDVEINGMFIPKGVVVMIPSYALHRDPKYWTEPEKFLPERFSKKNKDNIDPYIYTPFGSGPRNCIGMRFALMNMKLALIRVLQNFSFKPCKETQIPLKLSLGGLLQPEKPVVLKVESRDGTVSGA
Chain of Cytochrome P450 2C9 (P11712 whole entry): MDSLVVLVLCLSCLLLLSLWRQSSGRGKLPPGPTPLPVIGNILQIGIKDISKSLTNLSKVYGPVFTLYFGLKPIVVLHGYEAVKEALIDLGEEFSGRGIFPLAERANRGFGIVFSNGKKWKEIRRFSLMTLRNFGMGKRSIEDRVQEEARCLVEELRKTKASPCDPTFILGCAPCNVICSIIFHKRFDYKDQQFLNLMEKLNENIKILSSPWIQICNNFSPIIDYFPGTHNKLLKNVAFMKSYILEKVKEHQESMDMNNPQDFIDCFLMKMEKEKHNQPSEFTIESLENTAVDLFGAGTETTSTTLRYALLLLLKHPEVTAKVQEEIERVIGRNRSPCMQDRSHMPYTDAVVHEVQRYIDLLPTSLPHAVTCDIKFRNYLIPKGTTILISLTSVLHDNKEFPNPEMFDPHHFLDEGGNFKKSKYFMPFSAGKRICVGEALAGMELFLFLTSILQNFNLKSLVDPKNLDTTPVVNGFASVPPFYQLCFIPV

Structure (SMILES): c1ccc(Nc2nc(-c3ccccc3)nc3ccccc23)cc1
CC50 [1]: 24.8 µM (active)

AC50 [2]: 11.2 µM (inconclusive)
AC50 [3]: 20 µM (inconclusive)
Structure (SMILES): CCOC(=O)C1=C2SCC(=O)N2C(N)=C(C#N)C1

AC50 [4]: 7.94 µM (inconclusive)
Structure (SMILES): Cn1c(=O)c(-c2ccc(F)cc2)nc2cncnc21

AC50 [4]: 3.98 µM (inconclusive)
Structure (SMILES): S[C@@H]1CCCN(Cc2ccccc2)C1

Structure (SMILES): CC1CCc2nc(NC(=O)c3ccc(S(=O)(=O)N4CCCc5ccccc54)cc3)sc2C1 (configuration not stated)
EC50 [5]: 1.42 µM (active)
EC50 [6]: > 60 µM (not active)

AC50 [4]: 0.794 µM (inconclusive)
Structure (SMILES): CCCC[C@@H]1C[C@H]1C(NC(=O)c1cccnc1)c1ccc(-c2ccccc2)cc1 (some centres not stated)

Structure (SMILES): CCC(C)c1ccc(NC(=O)c2cccs2)cc1 (configuration not stated)
CC50 [1]: < 0.1 µM (active)

Structure (SMILES): Clc1ccccc1CSc1cc2c(nn1)-c1ccccc1CC2
CC50 [1]: 22.9 µM (active)

Structure (SMILES): COc1ccc2nc(O)c(CNc3cccc(C)c3)cc2c1
CC50 [1]: 6.97 µM (active)

AC50 [4]: 28.2 µM (inconclusive)
Structure (SMILES): CCC(=O)NC(=S)N1CCN(c2ccc([N+](=O)[O-])cc2Cl)CC1

AC50 [3]: 11.2 µM (inconclusive)
Structure (SMILES): COc1cccc(CNC(=O)C2CCN(S(=O)(=O)N3CCCCC3)CC2)c1

Structure (SMILES): COCc1ccc(CN2CCCC(CCC(=O)NCc3cccc(OC)c3)C2)o1 (configuration not stated)
EC50 [5]: 0.914 µM (active)
EC50 [6]: > 60 µM (not active)

Structure (SMILES): O=C(c1ccc(Cl)cc1)N1CCN(c2ccc([N+](=O)[O-])c(NCc3cccnc3)c2)CC1
CC50 [1]: 35.8 µM (active)

AC50 [4]: 3.98 µM (inconclusive)
Structure (SMILES): COC(=O)CC[C@@H](C)[C@H]1CC[C@H]2[C@H]3CC[C@H]4C[C@@H]5CC[C@@]4(C)C3(O5)[C@@H](Br)[C@@H](Br)[C@@]12C

AC50 [4]: 15.8 µM (inconclusive)
Structure (SMILES): O=c1cnc2cnc(N3CCOCC3)nc2n1CCc1ccccc1

AC50 [3]: 12.6 µM (inconclusive)
Structure (SMILES): O=C(c1cccs1)n1nc(-c2ccc(Cl)cc2)nc1NCc1ccco1

AC50 [4]: 11.2 µM (inconclusive)
AC50 [3]: 0.0891 µM (inconclusive)
Structure (SMILES): Cc1ccc(-n2c(SCc3ccc([N+](=O)[O-])cc3)nc3ccccc3c2=O)cc1

AC50 [2]: 3.16 µM (inconclusive)
Structure (SMILES): COc1cc(/C=C(/C#N)c2nc3ccccc3[nH]2)ccc1Oc1ncccc1[N+](=O)[O-]

Structure (SMILES): CC(C)(C)c1ccc(C(=O)N2CCC(C(=O)NC3CCCCCC3)CC2)cc1
CC50 [1]: 42 µM (active)

Structure (SMILES): c1ccc2c(N3CCOCC3)nc(-c3ccncc3)nc2c1
CC50 [1]: 42.6 µM (active)

AC50 [4]: 3.55 µM (inconclusive)
Structure (SMILES): Cc1cc(C)c(C#N)c(OCC(=O)c2ccc(Br)cc2)n1

Structure (SMILES): O=C(Cc1sc(Nc2ccccc2)nc1-c1ccccc1)NCc1ccccc1
CC50 [1]: 11.2 µM (active)

Structure (SMILES): CC1CCc2sc3nc(NCc4ccco4)n4ncnc4c3c2C1 (configuration not stated)
CC50 [1]: 30.3 µM (active)

Structure (SMILES): CCCS(=O)(=O)N1CCN(Cc2ccc3c(c2)c2ccccc2n3CC)CC1
CC50 [1]: 20.4 µM (active)

AC50 [2]: 14.1 µM (inconclusive)
AC50 [7]: 31.6 µM (inconclusive)
Structure (SMILES): Cc1ccc(C2=NN(S(C)(=O)=O)C(c3cccs3)C2)cc1 (configuration not stated)

Structure (SMILES): Cc1ccc(NC2=NC(=O)CS2)cc1
CC50 [1]: 34.3 µM (active)

Structure (SMILES): O=C(/C=C/c1cccc([N+](=O)[O-])c1)NCCSCc1ccccc1Cl
CC50 [1]: 25.4 µM (active)

Structure (SMILES): Cn1nc([N+](=O)[O-])nc1Oc1ccccc1N
EC50 [5]: 1.08 µM (active)
EC50 [6]: > 60 µM (not active)

Structure (SMILES): O=C(NCCN1CCN(C(=O)C(c2ccccc2)c2ccccc2)CC1)C(=O)Nc1ccccc1
AC50 [3]: 12.6 µM (inconclusive)

AC50 [2]: 39.8 µM (inconclusive)
AC50 [3]: 5.01 µM (inconclusive)
Structure (SMILES): O=C(Oc1ccccc1)N1CCC2(CCCN(c3ccccn3)C2)CC1

Structure (SMILES): CC(C)N1CCN(Cc2ccc(-c3ccccc3Cl)o2)CC1CCO (configuration not stated)
EC50 [5]: 1.61 µM (active)
EC50 [6]: > 60 µM (inconclusive)

Structure (SMILES): COc1ccc(CCNc2cc(C)nc3c(-c4ccccc4)cnn23)cc1OC
CC50 [1]: 43.2 µM (active)

Structure (SMILES): CC(C)NC(=O)c1sc2nc3c(c(-c4cccs4)c2c1N)CN(C)CC3
EC50 [5]: 0.856 µM (active)
EC50 [6]: > 60 µM (inconclusive)
